From patent publication US7250268B2, “Assay for measuring IκB kinase activity and identifying IκB kinase modulators” (Bristol-Myers Squibb Company, priority 2003, dated 2007)
Where a SMILES comes first, the peptide text is derived from it. [ ]: non-standard residue; d: D form. The star is where a group is joined. Nle = CCCC[C@H](N)C(=O)O; Cbz = O=C(OCc1ccccc1)*

Columns and labels:
proteasome [1] = target: T1, proteasome (Homo sapiens, UniProt P28074); test: Jurkat IκB-Bla reporter assay, inhibition of the TNFα-stimulated decrease in reporter level by proteasome inhibitors; format: cell-based
T1 construct: other: Jurkat IκB-Bla cells, TNFα stimulation; effect on the TNFα-stimulated decrease in reporter level; other: 10 μM for 60 minutes prior to TNFα 10 ng/ml; CCF2/AM
T1 sequence (P28074 60-263): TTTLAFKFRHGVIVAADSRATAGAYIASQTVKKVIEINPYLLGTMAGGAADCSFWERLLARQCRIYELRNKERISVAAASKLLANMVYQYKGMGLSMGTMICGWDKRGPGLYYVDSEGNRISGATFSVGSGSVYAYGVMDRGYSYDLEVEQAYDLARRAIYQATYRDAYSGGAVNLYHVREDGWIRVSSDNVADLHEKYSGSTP
T1 sequence (P28072 35-239 partner): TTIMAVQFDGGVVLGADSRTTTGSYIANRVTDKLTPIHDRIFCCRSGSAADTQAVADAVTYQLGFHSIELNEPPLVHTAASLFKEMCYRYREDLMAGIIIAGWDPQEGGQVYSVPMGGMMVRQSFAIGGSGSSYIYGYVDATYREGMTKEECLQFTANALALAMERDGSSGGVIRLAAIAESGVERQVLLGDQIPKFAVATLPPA
T1 sequence (Q99436 44-277 partner): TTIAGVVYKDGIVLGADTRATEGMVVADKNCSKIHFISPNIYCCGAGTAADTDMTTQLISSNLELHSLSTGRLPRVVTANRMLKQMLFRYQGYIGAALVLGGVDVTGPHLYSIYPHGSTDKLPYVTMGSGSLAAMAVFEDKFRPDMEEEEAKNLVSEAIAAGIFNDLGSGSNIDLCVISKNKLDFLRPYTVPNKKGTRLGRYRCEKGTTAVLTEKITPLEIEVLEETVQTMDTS
Protocol: (§1) Therefore, the requirement of proteasome activity on β-lactamase activity was tested. […] Reporter activity was determined using CCF2/AM.

proteasome [2] = test: as above; format: cell-based, Human; conditions: 10 μM, no TNFα; FIG. 10
Protocol: as §1

Jurkat IκB-Bla cells = test: Responsiveness of Jurkat IκB-Bla cells to proinflammatory treatments that activate the NFκB pathway; format: cell-based
Protocol: The responsiveness of the Jurkat IκB-Bla cells to proinflammatory treatments known to activate the NFκB pathway was tested. Cells were treated with 10 ng/ml TNFα, 10 nM PMA, 10 μg/ml PHA or 100 ng/ml IL-1β for the times indicated in FIG. 8A and then loaded with CCF2 and read on a fluorescence plate reader. […] The apparent insensitivity to IL-1β may be explained by low expression of IL-1 receptor in Jurkat cells.
To establish that the TNFα-stimulated decrease in β-lactamase activity was due to phosphorylation of IκB on serines-32 and -36, the responsiveness of Jurkat cells expressing the S32A, S36A IκB mutant as a fusion with β-lactamase was tested. The IκB(S32A, S36A)-Bla cell line was created exactly as described above for wild-type IκB-Bla cells. The cells were treated with 10 ng/ml TNFα for 30 minutes and then loaded with CCF2/AM. As shown in the comparison of wild-type construct to mutant in FIGS. 9A and 9B, respectively, the mutation of serines-32 and -36 abolished the decrease in β-lactamase activity in response to TNFα treatment.

Compound `CCCC[C@@H](C=O)NC(=O)[C@H](CC(C)C)NC(=O)[C@H](CC(C)C)NC(C)=O` [ALLN] (Ac-Leu-Leu-[Nle]-aldehyde) has an IC50 (proteasome [1]; Jurkat IκB-Bla cells, TNFα stimulation, data not shown, read-out: IC50 for inhibition of the TNFα-stimulated decrease in reporter levels) of 5 µM.

In the case of `CC(C)C[C@@H](C=O)NC(=O)[C@H](CC(C)C)NC(=O)[C@H](CC(C)C)NC(=O)OCc1ccccc1` [MG132] (Cbz-Leu-Leu-Leu-aldehyde), the “effect of inhibitor alone on reporter levels” value (proteasome [2]) is reported as “little to no effect” and the “effect on the TNFα-stimulated decrease in reporter level” value (proteasome [1]; 10 μM for 60 minutes prior to TNFα 10 ng/ml, CCF2/AM, FIG. 10) is reported as “efficiently inhibited”.

For `C[C@@H]1C[C@@H]([C@H](O)CC2CC(=O)NC(=O)C2)C(=O)[C@@H](C)C1` [cycloheximide], the “effect of blocking protein synthesis on the TNFα-stimulated decrease in β-lactamase activity” value (Jurkat IκB-Bla cells; 100 μg/ml added at the time of TNFα addition (10 ng/ml, 30 minutes), FIG. 9) was “did not have a strong synergistic effect”.

With “IL-1β: proinflammatory cytokine; low IL-1 receptor expression in Jurkat cells suggested” the “response of IκB-Bla reporter level (β-lactamase activity) to treatment” value (Jurkat IκB-Bla cells; 10 nM PMA, 10 μg/ml PHA or 100 ng/ml IL-1β, extended treatment for PMA and PHA, FIG. 8A) was “insensitivity”.

In the case of TNFα, the “decrease in β-lactamase activity” value (Jurkat IκB-Bla cells; 10 ng/ml, within 30 minutes, CCF2, FIG. 8A) is reported as 2 fold.
